Laboratory results: patent US7192906B2, “Substituted pyrazole derivatives, production process thereof, and herbicide compositions containing the derivatives” (SDS Biotech K.K., priority 2001, dated 2007)

Tested on: Setaria viridis
Assay: Test Example 2 upland soil treatment
Type: in vivo
Conditions: Table 5, upland soil treatment, index 0-5
Procedure: (§1) A plastic pot of 130 cm^2 was filled with upland soil. Subsequently, weed seeds of Setaria viridis, Digitaria adscendens, Chenopodium album and Stellaria media, and crop seeds of soybean (Glycine max) and wheat (Triticum aestivum), were sowed and covered with soil of about 1 cm thickness. On the next day after the sowing, the wettable powder prepared in Formulation Example 1 was diluted with water such that the amount of the active ingredient became 1 kg per hectare, and then uniformly applied to the soil surface. On the 21st day after the application, observation and evaluation were carried out according to the aforesaid criteria.
(§2) Herbicidal activity was evaluated based on the following criteria.
(§3) • 5: herbicidal effect of not less than 90%, or phytotoxicity of 90% or more • 4: herbicidal effect of not less than 70% and less than 90%, or phytotoxicity of 70% or more and less than 90% • 3: herbicidal effect of not less than 50% and less than 70%, or phytotoxicity of 50% or more and less than 70% • 2: herbicidal effect of not less than 30% and less than 50%, or phytotoxicity of 30% or more and less than 50% • 1: herbicidal effect of not less than 10% and less than 30%, or phytotoxicity of 10% or more and less than 30% • 0: herbicidal effect of not less than 0% and less than 10%, or phytotoxicity of 0% or more and less than 10%

With CNC(=O)C(Cn1cc(C)c(-c2ccc(OCc3ccccc3)cc2)n1)=NOC [Compound 54] as the compound, how does the “Herbicidal activity SV: Setaria viridis” value read?
Its value is 3 (herbicidal effect of not less than 50% and less than 70%, or phytotoxicity of 50% or more and less than 70%).

With CNC(=O)C(Cn1cc(C)c(-c2ccc(SC(F)(F)F)cc2)n1)=NOC [Compound 70] as the compound, how does the “Herbicidal activity SV: Setaria viridis” value read?
Its value is 3 (herbicidal effect of not less than 50% and less than 70%, or phytotoxicity of 50% or more and less than 70%).

With CNC(=O)C(Cn1cc(C)c(-c2ccc(C)c(F)c2)n1)=NOC [Compound 74] as the compound, how does the “Herbicidal activity SV: Setaria viridis” value read?
The value was 4 (herbicidal effect of not less than 70% and less than 90%, or phytotoxicity of 70% or more and less than 90%).

Tested on: Digitaria adscendens
Assay: Test Example 2 upland soil treatment
Type: in vivo
Conditions: Table 5, upland soil treatment, index 0-5
Procedure: as §1, §2, §3

How did the “Herbicidal activity DA: Digitaria adscendens” value (from here on “Herbicidal activity DA”) turn out when CNC(=O)C(Cn1cc(C)c(-c2ccc(OCc3ccccc3)cc2)n1)=NOC [Compound 54] was run?
Its value is 4 (herbicidal effect of not less than 70% and less than 90%, or phytotoxicity of 70% or more and less than 90%).

How did the “Herbicidal activity DA” value turn out when CNC(=O)C(Cn1cc(C)c(-c2ccc(SC(F)(F)F)cc2)n1)=NOC [Compound 70] was run?
The value was 3 (herbicidal effect of not less than 50% and less than 70%, or phytotoxicity of 50% or more and less than 70%).

For CNC(=O)C(Cn1cc(C)c(-c2ccc(C)c(F)c2)n1)=NOC [Compound 74], which “Herbicidal activity DA” value is on record?
Its value is 5 (herbicidal effect of not less than 90%, or phytotoxicity of 90% or more).

Tested on: Chenopodium album
Assay: Test Example 2 upland soil treatment
Type: in vivo
Conditions: Table 5, upland soil treatment, index 0-5
Procedure: as §1, §2, §3

With CNC(=O)C(Cn1cc(C)c(-c2ccc(OCc3ccccc3)cc2)n1)=NOC [Compound 54] as the compound, how does the “Herbicidal activity CA: Chenopodium album” value (from here on “Herbicidal activity CA”) read?
Its value is 5 (herbicidal effect of not less than 90%, or phytotoxicity of 90% or more).

For CNC(=O)C(Cn1cc(C)c(-c2ccc(SC(F)(F)F)cc2)n1)=NOC [Compound 70], which “Herbicidal activity CA” value is on record?
Its value is 4 (herbicidal effect of not less than 70% and less than 90%, or phytotoxicity of 70% or more and less than 90%).

How did the “Herbicidal activity CA” value turn out when CNC(=O)C(Cn1cc(C)c(-c2ccc(C)c(F)c2)n1)=NOC [Compound 74] was run?
Its value is 5 (herbicidal effect of not less than 90%, or phytotoxicity of 90% or more).

Tested on: Stellaria media
Assay: Test Example 2 upland soil treatment
Type: in vivo
Conditions: Table 5, upland soil treatment, index 0-5
Procedure: as §1, §2, §3

How did the “Herbicidal activity SM: Stellaria media” value turn out when CNC(=O)C(Cn1cc(C)c(-c2ccc(OCc3ccccc3)cc2)n1)=NOC [Compound 54] was run?
Its value is 5 (herbicidal effect of not less than 90%, or phytotoxicity of 90% or more).

CNC(=O)C(Cn1cc(C)c(-c2ccc(SC(F)(F)F)cc2)n1)=NOC [Compound 70] was tested. Which “Herbicidal activity SM: Stellaria media” value did it give?
The value was 4 (herbicidal effect of not less than 70% and less than 90%, or phytotoxicity of 70% or more and less than 90%).

How did the “Herbicidal activity SM: Stellaria media” value turn out when CNC(=O)C(Cn1cc(C)c(-c2ccc(C)c(F)c2)n1)=NOC [Compound 74] was run?
Its value is 5 (herbicidal effect of not less than 90%, or phytotoxicity of 90% or more).

Tested on: Setaria viridis
Assay: Test Example 1 upland field foliage treatment
Type: in vivo
Conditions: Table 4, upland field foliage treatment, index 0-5
Procedure: as §1, with “14th” for “next”, “plant leaf surfaces.” for “soil surface.”, “criteria described below.” for “aforesaid criteria.”
as §2, §3

Which “Herbicidal activity SV: Setaria viridis” value does the source give for CNC(=O)C(Cn1cc(C)c(-c2ccc(OCc3ccccc3)cc2)n1)=NOC [Compound 54] here?
The value was 4 (herbicidal effect of not less than 70% and less than 90%, or phytotoxicity of 70% or more and less than 90%).

How did the “Herbicidal activity SV: Setaria viridis” value turn out when CNC(=O)C(Cn1cc(C)c(-c2ccc(SC(F)(F)F)cc2)n1)=NOC [Compound 70] was run?
Its value is 4 (herbicidal effect of not less than 70% and less than 90%, or phytotoxicity of 70% or more and less than 90%).

Which “Herbicidal activity SV: Setaria viridis” value does the source give for CNC(=O)C(Cn1cc(C)c(-c2ccc(C)c(F)c2)n1)=NOC [Compound 74] here?
The value was 5 (herbicidal effect of not less than 90%, or phytotoxicity of 90% or more).

Tested on: Digitaria adscendens
Assay: Test Example 1 upland field foliage treatment
Type: in vivo
Conditions: Table 4, upland field foliage treatment, index 0-5
Procedure: as §1, with “14th” for “next”, “plant leaf surfaces.” for “soil surface.”, “criteria described below.” for “aforesaid criteria.”
as §2, §3

Which “Herbicidal activity DA” value does the source give for CNC(=O)C(Cn1cc(C)c(-c2ccc(OCc3ccccc3)cc2)n1)=NOC [Compound 54] here?
Its value is 5 (herbicidal effect of not less than 90%, or phytotoxicity of 90% or more).

With CNC(=O)C(Cn1cc(C)c(-c2ccc(SC(F)(F)F)cc2)n1)=NOC [Compound 70] as the compound, how does the “Herbicidal activity DA” value read?
Its value is 5 (herbicidal effect of not less than 90%, or phytotoxicity of 90% or more).

CNC(=O)C(Cn1cc(C)c(-c2ccc(C)c(F)c2)n1)=NOC [Compound 74] was tested. Which “Herbicidal activity DA” value did it give?
Its value is 5 (herbicidal effect of not less than 90%, or phytotoxicity of 90% or more).

Tested on: Chenopodium album
Assay: Test Example 1 upland field foliage treatment
Type: in vivo
Conditions: Table 4, upland field foliage treatment, index 0-5
Procedure: as §1, with “14th” for “next”, “plant leaf surfaces.” for “soil surface.”, “criteria described below.” for “aforesaid criteria.”
as §2, §3

Which “Herbicidal activity CA” value does the source give for CNC(=O)C(Cn1cc(C)c(-c2ccc(OCc3ccccc3)cc2)n1)=NOC [Compound 54] here?
The value was 4 (herbicidal effect of not less than 70% and less than 90%, or phytotoxicity of 70% or more and less than 90%).

Which “Herbicidal activity CA” value does the source give for CNC(=O)C(Cn1cc(C)c(-c2ccc(SC(F)(F)F)cc2)n1)=NOC [Compound 70] here?
Its value is 5 (herbicidal effect of not less than 90%, or phytotoxicity of 90% or more).

With CNC(=O)C(Cn1cc(C)c(-c2ccc(C)c(F)c2)n1)=NOC [Compound 74] as the compound, how does the “Herbicidal activity CA” value read?
The value was 5 (herbicidal effect of not less than 90%, or phytotoxicity of 90% or more).

Tested on: Stellaria media
Assay: Test Example 1 upland field foliage treatment
Type: in vivo
Conditions: Table 4, upland field foliage treatment, index 0-5
Procedure: as §1, with “14th” for “next”, “plant leaf surfaces.” for “soil surface.”, “criteria described below.” for “aforesaid criteria.”
as §2, §3

How did the “Herbicidal activity SM: Stellaria media” value turn out when CNC(=O)C(Cn1cc(C)c(-c2ccc(OCc3ccccc3)cc2)n1)=NOC [Compound 54] was run?
Its value is 4 (herbicidal effect of not less than 70% and less than 90%, or phytotoxicity of 70% or more and less than 90%).

How did the “Herbicidal activity SM: Stellaria media” value turn out when CNC(=O)C(Cn1cc(C)c(-c2ccc(SC(F)(F)F)cc2)n1)=NOC [Compound 70] was run?
Its value is 4 (herbicidal effect of not less than 70% and less than 90%, or phytotoxicity of 70% or more and less than 90%).

For CNC(=O)C(Cn1cc(C)c(-c2ccc(C)c(F)c2)n1)=NOC [Compound 74], which “Herbicidal activity SM: Stellaria media” value is on record?
Its value is 5 (herbicidal effect of not less than 90%, or phytotoxicity of 90% or more).

Tested on: wheat (Triticum aestivum)
Assay: Test Example 2 upland soil treatment, crop phytotoxicity
Type: in vivo
Conditions: Table 5, upland soil treatment, index 0-5
Procedure: as §1, §2, §3

Which “Herbicidal activity (phytotoxicity) TA: Wheat (Triticum aestivum)” value (“Herbicidal activity (phytotoxicity) TA” for short) does the source give for CNC(=O)C(Cn1cc(C)c(-c2ccc(OCc3ccccc3)cc2)n1)=NOC [Compound 54] here?
The value was 0 (herbicidal effect of not less than 0% and less than 10%, or phytotoxicity of 0% or more and less than 10%).

CNC(=O)C(Cn1cc(C)c(-c2ccc(SC(F)(F)F)cc2)n1)=NOC [Compound 70] was tested. Which “Herbicidal activity (phytotoxicity) TA” value did it give?
The value was 0 (herbicidal effect of not less than 0% and less than 10%, or phytotoxicity of 0% or more and less than 10%).

How did the “Herbicidal activity (phytotoxicity) TA” value turn out when CNC(=O)C(Cn1cc(C)c(-c2ccc(C)c(F)c2)n1)=NOC [Compound 74] was run?
The value was 0 (herbicidal effect of not less than 0% and less than 10%, or phytotoxicity of 0% or more and less than 10%).

Tested on: soybean (Glycine max)
Assay: as above
Type: in vivo
Conditions: Table 5, upland soil treatment, index 0-5
Procedure: as §1, §2, §3

CNC(=O)C(Cn1cc(C)c(-c2ccc(OCc3ccccc3)cc2)n1)=NOC [Compound 54] was tested. Which “Herbicidal activity (phytotoxicity) GM: Soybean (Glycine max)” value (“Herbicidal activity (phytotoxicity) GM” for short) did it give?
Its value is 0 (herbicidal effect of not less than 0% and less than 10%, or phytotoxicity of 0% or more and less than 10%).

CNC(=O)C(Cn1cc(C)c(-c2ccc(SC(F)(F)F)cc2)n1)=NOC [Compound 70] was tested. Which “Herbicidal activity (phytotoxicity) GM” value did it give?
Its value is 0 (herbicidal effect of not less than 0% and less than 10%, or phytotoxicity of 0% or more and less than 10%).

For CNC(=O)C(Cn1cc(C)c(-c2ccc(C)c(F)c2)n1)=NOC [Compound 74], which “Herbicidal activity (phytotoxicity) GM” value is on record?
Its value is 1 (herbicidal effect of not less than 10% and less than 30%, or phytotoxicity of 10% or more and less than 30%).

Tested on: wheat (Triticum aestivum)
Assay: Test Example 1 upland field foliage treatment, crop phytotoxicity
Type: in vivo
Conditions: Table 4, upland field foliage treatment, index 0-5
Procedure: as §1, with “14th” for “next”, “plant leaf surfaces.” for “soil surface.”, “criteria described below.” for “aforesaid criteria.”
as §2, §3

For CNC(=O)C(Cn1cc(C)c(-c2ccc(OCc3ccccc3)cc2)n1)=NOC [Compound 54], which “Herbicidal activity (phytotoxicity) TA” value is on record?
The value was 0 (herbicidal effect of not less than 0% and less than 10%, or phytotoxicity of 0% or more and less than 10%).

For CNC(=O)C(Cn1cc(C)c(-c2ccc(SC(F)(F)F)cc2)n1)=NOC [Compound 70], which “Herbicidal activity (phytotoxicity) TA” value is on record?
Its value is 0 (herbicidal effect of not less than 0% and less than 10%, or phytotoxicity of 0% or more and less than 10%).

With CNC(=O)C(Cn1cc(C)c(-c2ccc(C)c(F)c2)n1)=NOC [Compound 74] as the compound, how does the “Herbicidal activity (phytotoxicity) TA” value read?
Its value is 0 (herbicidal effect of not less than 0% and less than 10%, or phytotoxicity of 0% or more and less than 10%).

Tested on: soybean (Glycine max)
Assay: as above
Type: in vivo
Conditions: Table 4, upland field foliage treatment, index 0-5
Procedure: as §1, with “14th” for “next”, “plant leaf surfaces.” for “soil surface.”, “criteria described below.” for “aforesaid criteria.”
as §2, §3

Which “Herbicidal activity (phytotoxicity) GM” value does the source give for CNC(=O)C(Cn1cc(C)c(-c2ccc(OCc3ccccc3)cc2)n1)=NOC [Compound 54] here?
Its value is 0 (herbicidal effect of not less than 0% and less than 10%, or phytotoxicity of 0% or more and less than 10%).

For CNC(=O)C(Cn1cc(C)c(-c2ccc(SC(F)(F)F)cc2)n1)=NOC [Compound 70], which “Herbicidal activity (phytotoxicity) GM” value is on record?
The value was 0 (herbicidal effect of not less than 0% and less than 10%, or phytotoxicity of 0% or more and less than 10%).

CNC(=O)C(Cn1cc(C)c(-c2ccc(C)c(F)c2)n1)=NOC [Compound 74] was tested. Which “Herbicidal activity (phytotoxicity) GM” value did it give?
Its value is 0 (herbicidal effect of not less than 0% and less than 10%, or phytotoxicity of 0% or more and less than 10%).
